In the test the target is T1, human μ opiate receptor (Homo sapiens, UniProt P35372).
T1 construct: purchased PerkinElmer Life Sciences, Zaventem, Belgium RB-HOM; host or cells: CHO-K1 cells (membrane preparation)
T1 sequence (P35372 whole entry): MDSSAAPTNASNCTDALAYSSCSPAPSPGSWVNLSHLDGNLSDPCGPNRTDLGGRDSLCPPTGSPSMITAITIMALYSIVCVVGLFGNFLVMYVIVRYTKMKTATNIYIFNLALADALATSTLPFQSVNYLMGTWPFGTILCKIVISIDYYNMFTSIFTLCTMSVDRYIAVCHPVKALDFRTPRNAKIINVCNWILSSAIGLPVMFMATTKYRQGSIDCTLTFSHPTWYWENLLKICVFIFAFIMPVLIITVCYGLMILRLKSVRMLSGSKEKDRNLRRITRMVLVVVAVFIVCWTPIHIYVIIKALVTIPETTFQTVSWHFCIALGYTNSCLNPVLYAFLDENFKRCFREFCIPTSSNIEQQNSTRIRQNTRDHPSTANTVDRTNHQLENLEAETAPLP
The test can be described thus: Affinity for the human μ opiate receptor ([3H]-naloxone displacement, CHO-K1 receptor membrane preparation, SPA). The format is binding. The settings on record: test concentration of 1 μM; read-out: μ (binding on the μ opioid receptor, % inhibition). In a few lines: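 SPA, CHO-K1 hμ membranes; 1 nmol/l [3H]-naloxone; Tris-HCl 50 mmol/l + 0.06% BSA; 90 min RT; NSB with 100 μmol/l naloxone; β-counting. Readout: % inhibition of specific binding at 1 μM test compound.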
Regarding `CN(C)C(c1cccc(F)c1)C1CCC(CNC(=O)COCCN(C)S(=O)(=O)c2c(Cl)cc(Cl)cc2Cl)CC1` (stereo not shown) [Example 188, N-((4-((dimethylamino)(3-fluorophenyl)methyl)cyclohexyl)methyl)-2-(2-(2,4,6-trichloro-N-methylphenylsulfonamido)ethoxy)acetamide], the inhibition (as a rule, the change of the read-out against control, counted positive when it falls) at 1 µM came to 87%.

Take `COc1ccc(S(=O)(=O)N2CCC(OCC(=O)NCC3CCC(C(c4cccc(F)c4)N(C)C)CC3)C2)cc1OC` (stereo not shown) [Example 184, 2-(1-(3,4-dimethoxyphenylsulfonyl)pyrrolidin-3-yloxy)-N-((4-((dimethylamino)(3-fluorophenyl)methyl)cyclohexyl)methyl)acetamide]: the inhibition at 1 µM amounted to 91%.

As to `COc1cc(C)c(S(=O)(=O)N(C)CCOCC(=O)NCC2CCC(C(c3ccccc3)N(C)C)CC2)c(C)c1` (stereo not shown) [Example 137, N-((4-((dimethylamino)(phenyl)methyl)cyclohexyl)methyl)-2-(2-(4-methoxy-N,2,6-trimethylphenylsulfonamido)ethoxy)acetamide], the inhibition at 1 µM is 89%.

With `CN(C)C(c1cccc(F)c1)C1CCC(CNC(=O)COC2CCCCC2N(C)S(=O)(=O)c2ccc(Cl)c(Cl)c2)CC1` (stereo not shown) [Example 164, 2-(2-(3,4-dichloro-N-methylphenylsulfonamido)cyclohexyloxy)-N-((4-((dimethylamino)(3-fluorophenyl)methyl)cyclohexyl)methyl)acetamide], the inhibition at 1 µM was 86%.

For the compound `CN(C)C(c1cccc(F)c1)C1CCC(CNC(=O)COC2CCN(S(=O)(=O)c3cccc(C(F)(F)F)c3)C2)CC1` (stereo not shown) [Example 170, N-((4-((dimethylamino)(3-fluorophenyl)methyl)cyclohexyl)methyl)-2-(1-(3-(trifluoromethyl)phenylsulfonyl)pyrrolidin-3-yloxy)acetamide], the inhibition at 1 µM was 83%.

For the compound `Cc1cc(C)c(S(=O)(=O)N2CCC(OCC(=O)NC3CCC(C(c4cccs4)N(C)C)CC3)C2)c(C)c1` (stereo not shown) [Example 12, N-(4-((dimethylamino)(thiophen-2-yl)methyl)cyclohexyl)-2-(1-(mesitylsulfonyl)pyrrolidin-3-yloxy)acetamide], the inhibition at 1 µM was 98%.

Take `CN(C)C(c1cccc(F)c1)C1CCC(CNC(=O)COCCN(C)S(=O)(=O)c2ccc(Cl)cc2)CC1` (stereo not shown) [Example 158, 2-(2-(4-chloro-N-methylphenylsulfonamido)ethoxy)-N-((4-((dimethylamino)(3-fluorophenyl)methyl)cyclohexyl)methyl)acetamide]: the inhibition at 1 µM amounted to 87%.

`CN(C)C(c1cccs1)C1CCC(NC(=O)COCCN(Cc2ccccc2)S(=O)(=O)c2ccccc2)CC1` (stereo not shown) [Example 161, 2-(2-(N-benzylphenylsulfonamido)ethoxy)-N-(4-((dimethylamino)(thiophen-2-yl)methyl)cyclohexyl)acetamide]: the inhibition at 1 µM came to 86%.

Take `CN(C)C(c1ccccc1)C1CCC(CNC(=O)COCCN(Cc2ccccc2)S(=O)(=O)c2ccccc2)CC1` (stereo not shown) [Example 15, 2-(2-(N-benzylphenylsulfonamido)ethoxy)-N-((4-((dimethylamino)(phenyl)methyl)cyclohexyl)methyl)acetamide]: the inhibition at 1 µM came to 98%.

As for `Cc1ccc(S(=O)(=O)N2CCC(OCC(=O)NCC3CCC(C(c4cccc(F)c4)N(C)C)CC3)C2)cc1` (stereo not shown) [Example 185, N-((4-((dimethylamino)(3-fluorophenyl)methyl)cyclohexyl)methyl)-2-(1-tosylpyrrolidin-3-yloxy)acetamide], the inhibition at 1 µM was found to be 78%.

Turning to `CN(C)C(c1ccccc1)C1CCC(CNC(=O)COCC2CCCCN2S(=O)(=O)c2ccc(Cl)c(Cl)c2)CC1` (stereo not shown) [Example 17, 2-((1-(3,4-dichlorophenylsulfonyl)piperidin-2-yl)methoxy)-N-((4-((dimethylamino)(phenyl)methyl)cyclohexyl)methyl)acetamide], the inhibition at 1 µM was found to be 98%.

Consider `CN(C)C(c1cccs1)C1CCC(CNC(=O)COC2CCN(S(=O)(=O)c3cccc(C(F)(F)F)c3)C2)CC1` (stereo not shown) [Example 25, N-((4-((dimethylamino)(thiophen-2-yl)methyl)cyclohexyl)methyl)-2-(1-(3-(trifluoromethyl)phenylsulfonyl)pyrrolidin-3-yloxy)acetamide], for which the inhibition at 1 µM was 97%.

With `COc1ccc(S(=O)(=O)N2CCCC2COCC(=O)NC2CCC(C(c3cccs3)N(C)C)CC2)cc1` (stereo not shown) [Example 162, N-(4-((dimethylamino)(thiophen-2-yl)methyl)cyclohexyl)-2-((1-(4-methoxyphenylsulfonyl)pyrrolidin-2-yl)methoxy)acetamide], the inhibition at 1 µM was 86%.

Regarding `COc1cc(C)c(S(=O)(=O)N(C)CCOCC(=O)NCCC2CCC(C(c3cccc(F)c3)N(C)C)CC2)c(C)c1` (stereo not shown) [Example 197, N-(2-(4-((dimethylamino)(3-fluorophenyl)methyl)cyclohexyl)ethyl)-2-(2-(4-methoxy-N,2,6-trimethylphenylsulfonamido)ethoxy)acetamide], the inhibition at 1 µM is 85%.

As to `CN(C)C(c1ccccc1)C1CCC(CNC(=O)COCCN(C)S(=O)(=O)c2c(Cl)cc(Cl)cc2Cl)CC1` (stereo not shown) [Example 14, N-((4-((dimethylamino)(phenyl)methyl)cyclohexyl)methyl)-2-(2-(2,4,6-trichloro-N-methylphenylsulfonamido)ethoxy)acetamide], the inhibition at 1 µM is 98%.

On to `CN(C)C(c1cccc(F)c1)C1CCC(CCNC(=O)COCCN(C)S(=O)(=O)c2c(Cl)cc(Cl)cc2Cl)CC1` (stereo not shown) [Example 174, N-(2-(4-((dimethylamino)(3-fluorophenyl)methyl)cyclohexyl)ethyl)-2-(2-(2,4,6-trichloro-N-methylphenylsulfonamido)ethoxy)acetamide], for which the inhibition at 1 µM came out at 90%.

Turning to `CN(C)C(c1cccs1)C1CCC(CCNC(=O)COCCN(C)S(=O)(=O)c2cccc(C(F)(F)F)c2)CC1` (stereo not shown) [Example 32, N-(2-(4-((dimethylamino)(thiophen-2-yl)methyl)cyclohexyl)ethyl)-2-(2-(N-methyl-3-(trifluoromethyl)phenylsulfonamido)ethoxy)acetamide], the inhibition at 1 µM is 97%.

`COc1ccc(S(=O)(=O)N2CCCCC2COCC(=O)NCC2CCC(C(c3cccc(F)c3)N(C)C)CC2)c(OC)c1` (stereo not shown) [Example 151, 2-((1-(2,4-dimethoxyphenylsulfonyl)piperidin-2-yl)methoxy)-N-((4-((dimethylamino)(3-fluorophenyl)methyl)cyclohexyl)methyl)acetamide]: the inhibition at 1 µM worked out at 90%.

For the compound `CN(C)C(c1ccccc1)C1CCC(NC(=O)COCCN(C)S(=O)(=O)c2ccc(Cl)cc2Cl)CC1` (stereo not shown) [Example 33, 2-(2-(2,4-dichloro-N-methylphenylsulfonamido)ethoxy)-N-(4-((dimethylamino)(phenyl)methyl)cyclohexyl)acetamide], the inhibition at 1 µM is 49%.

Regarding `COc1cc(C)c(S(=O)(=O)N2CCN(CCOCC(=O)NC3CCC(C(c4ccccc4)N(C)C)CC3)CC2)c(C)c1C` (stereo not shown) [Example 20, N-(4-((dimethylamino)(phenyl)methyl)cyclohexyl)-2-(2-(4-(4-methoxy-2,3,6-trimethylphenylsulfonyl)piperazin-1-yl)ethoxy)acetamide], the inhibition at 1 µM was 97%.

With `COc1cc(C)c(S(=O)(=O)N2CCC(CCOCC(=O)NCC3CCC(C(c4ccccc4)N(C)C)CC3)CC2)c(C)c1C` (stereo not shown) [Example 146, N-((4-((dimethylamino)(phenyl)methyl)cyclohexyl)methyl)-2-(2-(1-(4-methoxy-2,3,6-trimethylphenylsulfonyl)piperidin-4-yl)ethoxy)acetamide], the inhibition at 1 µM is 88%.

As to `COc1ccc(S(=O)(=O)N2CCC(OCC(=O)NC3CCC(C(c4cccs4)N(C)C)CC3)C2)cc1OC` (stereo not shown) [Example 155, 2-(1-(3,4-dimethoxyphenylsulfonyl)pyrrolidin-3-yloxy)-N-(4-((dimethylamino)(thiophen-2-yl)methyl)cyclohexyl)acetamide], the inhibition at 1 µM turned out to be 88%.

In the case of `COc1cc(C)c(S(=O)(=O)N2CCC(OCC(=O)NCC3CCC(C(c4ccccc4)N(C)C)CC3)CC2)c(C)c1C` (stereo not shown) [Example 143, N-((4-((dimethylamino)(phenyl)methyl)cyclohexyl)methyl)-2-(1-(4-methoxy-2,3,6-trimethylphenylsulfonyl)piperidin-4-yloxy)acetamide], the inhibition at 1 µM stood at 89%.

For `Cc1cc(C)c(S(=O)(=O)N2CCC(OCC(=O)NCC3CCC(C(c4cccs4)N(C)C)CC3)C2)c(C)c1` (stereo not shown) [Example 27, N-((4-((dimethylamino)(thiophen-2-yl)methyl)cyclohexyl)methyl)-2-(1-(mesitylsulfonyl)pyrrolidin-3-yloxy)acetamide], the inhibition at 1 µM was determined as 97%.

Regarding `Cc1cc(C)c(S(=O)(=O)N2CCC(OCC(=O)NC3CCC(C(c4cccc(F)c4)N(C)C)CC3)C2)c(C)c1` (stereo not shown) [Example 140, N-(4-((dimethylamino)(3-fluorophenyl)methyl)cyclohexyl)-2-(1-(mesitylsulfonyl)pyrrolidin-3-yloxy)acetamide], the inhibition at 1 µM came out at 83%.

With `COc1ccc(S(=O)(=O)N2CCC(OCC(=O)NCC3CCC(C(c4cccs4)N(C)C)CC3)C2)cc1OC` (stereo not shown) [Example 23, 2-(1-(3,4-dimethoxyphenylsulfonyl)pyrrolidin-3-yloxy)-N-((4-((dimethylamino)(thiophen-2-yl)methyl)cyclohexyl)methyl)acetamide], the inhibition at 1 µM is 97%.

As for `CN(C)C(c1cccc(F)c1)C1CCC(CCNC(=O)COCCN(C)S(=O)(=O)c2cccc(C(F)(F)F)c2)CC1` (stereo not shown) [Example 192, N-(2-(4-((dimethylamino)(3-fluorophenyl)methyl)cyclohexyl)ethyl)-2-(2-(N-methyl-3-(trifluoromethyl)phenylsulfonamido)ethoxy)acetamide], the inhibition at 1 µM stood at 88%.

On to `CCN(CCOCC(=O)NCC1CCC(C(c2cccs2)N(C)C)CC1)S(=O)(=O)c1c(C)cc(OC)c(C)c1C` (stereo not shown) [Example 16, N-((4-((dimethylamino)(thiophen-2-yl)methyl)cyclohexyl)methyl)-2-(2-(N-ethyl-4-methoxy-2,3,6-trimethylphenylsulfonamido)ethoxy)acetamide], for which the inhibition at 1 µM turned out to be 98%.

For the origin of these results see patent US8106055B2, “Substituted amide compounds” (Gruenenthal GmbH, priority 2007, dated 2012).
